Measured values from patent US7465799B2, “Methods and compositions for selectin inhibition” (Wyeth, priority 2003, dated 2008).

Target: T1, P-selectin binding to P-selectin glycoprotein ligand-1 (PSGL-1) (Homo sapiens, UniProt P16109)
T1 construct: truncated form of human P-selectin comprised of the lectin and EGF domains (P-LE)
T1 sequence (P16109 42-198): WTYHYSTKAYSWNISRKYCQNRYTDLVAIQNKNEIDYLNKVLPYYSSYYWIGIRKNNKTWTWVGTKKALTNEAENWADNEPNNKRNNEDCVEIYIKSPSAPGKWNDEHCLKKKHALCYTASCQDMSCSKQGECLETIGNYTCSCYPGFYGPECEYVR
Experiment: Biacore assay: inhibition of P-selectin (P-LE) binding to PSGL-1 (SGP-3)
Settings: at 1 mM
Procedure: Compounds of the invention can be assayed for selectin inhibitory activity using any of the procedures known in the art. One convenient procedure is the determination of IC50 values for inhibition of P-selectin binding to P-selectin glycoprotein ligand-1 (PSGL-1) using Biacore.
The Biacore 3000 is an instrument that uses surface plasmon resonance to detect binding of a solution phase analyte to an immobilized ligand on a sensor chip surface. The analyte sample is injected under flow using a microfluidic system. Binding of analyte to ligand causes a change in the angle of refracted light at the surface of the sensor chip, measured by the Biacore instrument in resonance units (RUs).
SGP-3 is a purified sulfoglycopeptide form of human PSGL-1 that contains the P-selectin binding determinants (See Somers et al., 2000, Cell 103, 467-479). SGP-3 was biotinylated via amine chemistry at a unique C-terminal lysine residue and immobilized on streptavidin-coated SA sensor chip. […]
The Biacore assay measures the signal in RU produced by binding of P-LE to SGP-3 in the presence and absence of inhibitors. Percent inhibition of binding is calculated by dividing the inhibited signal by the uninhibited signal subtracting this value from one then multiplying by one hundred. […] The data from this titration are plotted, RU values vs. concentration, and the IC50 is determined by extrapolation from the plot. […]

Percent inhibition of binding (positive control): 50%
Structure (SMILES): CC1(C)[C@@H](O[C@H]2O[C@H](C(=O)O)[C@@H](O)[C@H](O)[C@H]2O[C@@H]2O[C@H](C(=O)O)[C@@H](O)[C@H](O)[C@H]2O)CC[C@]2(C)[C@H]3C(=O)C=C4[C@@H]5C[C@@](C)(C(=O)O)CC[C@]5(C)CC[C@@]4(C)[C@]3(C)CC[C@@H]12 [Glycerrhizzin]
